Measurements: patent US20240423933A1, “DRUGS FOR TREATING NEURODEVELOPMENTAL DISORDERS” (President and Fellows of Harvard College, priority 2021, published 2024)
“Also recorded” adds a separate entry of the source. Where a SMILES comes first, the peptide text is derived from it. [ ]: non-standard residue; d: D form. αMeP = C[C@@]1(C(=O)O)CCCN1

How the values were obtained:
[1] = test system: MeCP2 knockdown Xenopus laevis tadpoles; assay: Seizure Score in MeCP2 knockdown tadpoles; type: in vivo; settings: MeCP2 knockdown tadpoles treated Day 1 to Day 6, relative to vehicle
Text: Seizure Score data for wild-type and MeCP2 knockdown was collected for Xenopus laevis tadpoles treated with drug (trofinetide or vorinostat) or vehicle from Day 1 to Day 6, after which they were placed back in medium.

[2] = test system: MeCP2 knockdown Xenopus laevis tadpoles; assay: Tadpole viability in the MeCP2 knockdown model; type: in vivo; settings: for animals survived until Day 10: MeCP2 knockdown tadpoles, no vehicle-treated animal survived beyond Day 6; for tadpole viability: MeCP2 knockdown model, FIGS. 6A-6B
Text: 100% of MeCP2 knockdown animals treated with vorinostat survived until Day 10; over 50% of MeCP2 knockdown animals treated with trofinetide survived until Day 10. Conversely, none of the MeCP2 knockdown animals treated with vehicle survived beyond Day 6.

[3] = test system: MeCP2-knockdown (MeCP2-/Y) mice; assay: MeCP2 knockdown mouse study, treatment after onset of symptoms (oral vorinostat); type: in vivo; settings: for survival after 3 weeks of treatment: MeCP2-knockdown animals; for colocalization of acetylated a-tubulin with neuronal staining in the colon: bIII- and acetylated alpha-tubulin staining; for colon vacuolization and neutrophil infiltrate (histology): colon sections of MeCP2-knockdown animals; for overall mobility scores (mobility, gait, hindlimb clasping) / diarrhea scores: relative to vehicle-treated MeCP2-knockdown animals; for overall mobility scores (mobility, gait, hindlimb clasping): FIG. 9B; for diarrhea scores: FIG. 9C
Protocol: Mice were treated with either trofinetide or vorinostat, and change in animal weight (g) and Cumulative Severity Score were assessed.
MeCP2-knockdown (MeCP2-/Y) mice were dosed approximately one week after the onset of symptoms with an oral formulation of vorinostat.
Additionally, the overall mobility scores (based on mobility, gait, and hindlimb clasping) and the diarrhea scores were improved for MeCP2-knockdown animals treated with vorinostat and trofinetide, relative to vehicle-treated MeCP2-knockdown animals (FIG. 9B and 9C, respectively). […] There was also an overall increase of hyperacetylated a-tubulin in bronchioles of MeCP2-Vy animals that vorinostat restored (FIG. 9E). Finally, vorinostat treatment rescued the disrupted a-tubulin acetylation observed in femoral muscle sections (FIG. 9F).
Initial histological analysis of the colon indicated a greater degree of vacuolization and heightened neutrophil infiltrate in MeCP2-knockdown animals, which vorinostat and trofinetide reversed. […] Vorinostat also normalized the ratio of acetylated alpha-tubulin to bIII-tubulin (FIG. 9G).

[4] = test system: MeCP2 knockdown Xenopus laevis tadpoles; assay: alpha-tubulin acetylation and cilia in tissues of MeCP2 knockdown tadpoles; type: in vivo
Protocol: Xenopus laevis tadpoles having an MeCP2 knockdown were generated using CRISPR-Cas9 technology. Xenopus embryos were fertilized and maintained at 14° C. until the 4-cell stage. Each cell was injected with ˜2 nL ribonucleoprotein (a mixture of sgRNAs targeting the MeCP2 gene and Cas9 enzyme). No adverse effects to development were observed, as all embryos developed to the swimming tadpole stages (Nieuwkoop-Faber stages 45-50) with no apparent loss of viability or morphological defect.
Specifically, tadpole tissues were assessed for alpha-tubulin acetylation and bidirectional shifts in acetylation patterns were observed depending on the tissue type.

[5] = test system: MeCP2 knockdown Xenopus laevis; assay: Tongue thickness and GI tract ib4+ staining in MeCP2 knockdown tadpoles; type: in vivo
Text: Treatment with vorinostat in Xenopus laevis also had impacts on GI tract inflammation and nociceptive innervation. The role of MeCP2 knockdown in GI tract inflammation and nociceptive innervation by staining for isolectin B4-positive (ib4+) cells.

[6] = test system: MeCP2-knockdown (MeCP2−/Y) mice; assay: MeCP2 knockdown mouse study, daily i.p. treatment from p31; type: in vivo; settings: vorinostat 50 mg/kg i.p. daily, relative to vehicle-treated MeCP2-knockdown mice
Protocol: Wild-type and MeCP2-knockdown (MeCP2^−/Y) mice (a Rett mouse model) were treated starting at day 31 post-partum (p31) via daily intraperitoneal (i.p.) administration of trofinetide (100 mg/kg) or vorinostat (50 mg/kg) until day 51 of age (FIG. 7A). Behavorial assays were performed at days 35-39 and days 49-53, before sacrificing the mice and harvesting organs at day 54.

[7] = test system: Naïve C57BL6 mice; assay: Elevated Plus Maze test; type: in vivo, mouse; settings: FIGS. 11A-11B

## C[C@@]1(C(=O)N[C@@H](CCC(=O)O)C(=O)O)CCCN1C(=O)CN [trofinetide, (2S)-2-[[(2S)-1-(2-aminoacetyl)-2-methylpyrrolidine-2-carbonyl]amino]pentanedioic acid] (H-Gly-[αMeP]-Glu-OH)
[1]
  seizures (Seizure Score): reduced seizures
[2]
  animals survived until Day 10: over 50%
[3]
  survival after 3 weeks of treatment: about 60%
  colocalization of acetylated a-tubulin with neuronal staining in the colon: normalized
  colon vacuolization and neutrophil infiltrate (histology): reversed
  overall mobility scores (mobility, gait, hindlimb clasping): improved
  diarrhea scores: improved

## O=C(CCCCCCC(=O)Nc1ccccc1)NO [vorinostat, N′-hydroxy-N-phenyloctanediamide]
[1]
  seizures (Seizure Score): reduced seizures
[4]; FIG. 2C
  a-tubulin hyperacetylation in the GI tract: reversed that hyperacetylation
[4]; microtubules and alpha-tubulin
  hyper-acetylation in olfactory multi-ciliated cells: reverses hyper-acetylation
[4]; nostril multiciliated cells, FIGS. 2A-2B
  effects related to microtubules and cilia length: reversed those effects
[5]; MeCP2 knockdown animals, FIG. 3A
  tongue thickness: restored normal tongue thickness; also recorded: restores normal tongue vertical thickness
[5]; MeCP2 knockdown tadpoles, isolectin B4 staining, FIG. 3B
  ib4+ expression in the GI tract: reversed that ib4+ expression; also recorded: restores normal ib4+ expression
[6]; FIG. 7D
  neurological function (elevated plus maze and spatial novelty Y-maze performance): improved neurological function
[6]; FIG. 7E
  diarrhea score: improved diarrhea score
[2]
  tadpole viability: improves Xenopus laevis tadpole viability
  animals survived until Day 10: 100%
[2]; listed as Vorinostat
  tadpole viability: improve Xenopus laevis tadpole viability
[3]; FIG. 9E
  hyperacetylated a-tubulin in bronchioles: restored
[3]; FIG. 9F
  a-tubulin acetylation in femoral muscle sections: rescued
[3]
  survival after 3 weeks of treatment: 100%
  colocalization of acetylated a-tubulin with neuronal staining in the colon: normalized
  colon vacuolization and neutrophil infiltrate (histology): reversed
  overall mobility scores (mobility, gait, hindlimb clasping): improved
  diarrhea scores: improved
[3]; colon, FIG. 9G
  ratio of acetylated alpha-tubulin to bIII-tubulin: normalized
[3]; compared to trofinetide and vehicle treatments, FIG. 9D
  breathing (score): significantly improved
[3]; oral vorinostat 50 mg/kg
  performance in EPM and Y mazes: increased performance
  weight gain: ameliorated weight gain
[3]; oral vorinostat 50 mg/kg, mice treated at 35 days of age after onset of severe symptoms, FIG. 9A
  Cumulative Severity Score / symptom severity score: more effective than trofinetide; also recorded: prevented significant worsening
[7]
  behavior in anxiety, activity and novelty seeking: restored behavior in anxiety, activity and novelty seeking; also recorded: restores naïve C57BL6 behavior
